One series has as its system 2.2.15 cells. As to the kind of experiment: Cytotoxicity (TC50) in 2.2.15 cells. It counts as cell-based.
A further series deals with HBsAg. As to the kind of experiment: In vitro anti-HBV activity: HBsAg production in HBV-infected 2.2.15 cells (RIA). Type of series: cell-based, Hepatitis B virus (HBV). The note with it: for IC50: Hepatitis B virus, read-out: HBsAg IC50; for HBsAg SI: selectivity index. On the procedure: All compounds were evaluated for their anti-HBV activities, namely the ability to inhibit the replication of HBV DNA and the production of HBsAg and HBeAg in HBV-infected 2.2.15 cells.
The samples were dissolved in DMSO for appropriate concentrations, and then each was diluted 3-fold with culture medium. The 2.2.15 cells were planted into 96-well culture plates. […] The culture supernatants and 2.2.15 cells were collected respectively on the 8th plant day. The secretion concentrations of HBsAg and HBeAg in the culture supernatants were measured by RIA on SPRIA Kit for Detection of HBsAg and HBeAg (Beijing North Institute of Biological Technology), and the replication of HBV DNA was measured by dot hybridization with a^32PdCTP (FuRui Biological Technology Ltd., China).

A further series has as its system HBV DNA. As to the kind of experiment: In vitro anti-HBV activity: replication of HBV DNA in 2.2.15 cells (dot hybridization). The note with it: for IC50: Hepatitis B virus, read-out: DNA replication IC50; for DNA replication SI: selectivity index. Type of series: cell-based, Hepatitis B virus (HBV). In a few lines:
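HBV-producing 2.2.15 cells exposed to 3-fold serial dilutions of compound (DMSO stocks diluted in medium); cells and supernatants harvested on day 8. Intracellular HBV DNA replication quantified by dot hybridization with α-32P-dCTP probe; HBsAg/HBeAg in supernatant by RIA.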

The test system of series [1] is influenza A virus, strain A/jifang/90-15. As to the kind of experiment: microbe, parasite or virus in culture. The note with it: for IC50: Influenza strain A/jifang/90-15, MDCK cells, CPE, Reed-Muench; for SI: Influenza strain A/jifang/90-15. Type of series: cell-based.
Series [2] relates to Madin-Darby canine kidney (MDCK) cells.
The next series concerns the target T1, HIV-1 protease (Human immunodeficiency virus type 1 group M subtype B, UniProt P04585).
T1 construct: The genetically engineered target enzyme (HIV-1 protease, preserved at −85° C.)
As to the kind of experiment: Anti-HIV-1 protease activity (fluorescence labeled substrate). It counts as biochemical. The note with it: for inhibition ratio at 0.5 ug/ml: sample concentration 0.5 ug/ml; for inhibition ratio at 2.0 ug/ml: sample concentration 2.0 ug/ml; for inhibition ratio at 10 ug/ml: sample concentration 10 ug/ml; for inhibition ratio at 50 ug/ml: sample concentration 50 ug/ml; for inhibition ratio at 250 ug/ml: sample concentration 250 ug/ml. In a few lines: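 Recombinant HIV-1 protease incubated under optimal conditions with a fluorescence-labelled substrate and test samples dissolved in DMSO or water and diluted 5-fold. Inhibition read as product fluorescence on a fluorometer; indinavir as reference.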

[3] abbreviates: Influenza A virus, read-out: IC50.

Converted amounts (≈) assume the structure as drawn. Where a name gives a salt, the structure may show the parent alone. Read-outs that look alike come from different tables or passages of the source. Bounds are passed on as bounds.

In general, IC50 refers to the midpoint of a concentration-inhibition curve.

Take `CCOC(=O)c1c(C[S+]([O-])c2ccc(F)cc2)n(C)c2cc(Br)c(O)c(Cn3ccnc3)c12` (stereo not shown) [Example 122, Ethyl 6-bromo-5-hydroxy-4-[(1-imidazolyl)methyl]-1-methyl-2-[(4-fluorophenyl)sulfinylmethyl]-1H-indole-3-carboxylate]: the TC50 in the series with 2.2.15 cells was 48.1 µg/mL (≈ 90 µM). In the series with HBsAg, the IC50 was 11.4 µg/mL (≈ 21.3 µM) and the “HBsAg SI” value is reported as 4.23. For the same compound, in the series on HBV DNA, the IC50 amounted to 13.6 µg/mL (≈ 25.5 µM) and the “DNA replication SI” value came to 3.54.

As for `CCOC(=O)c1c(CS(=O)(=O)c2cccc(C(F)(F)F)c2)n(C2CC2)c2cc(Br)c(O)c(CN3CCCC3)c12` [Example 83, Ethyl 6-bromo-1-cyclopropyl-5-hydroxy-4-(1-pyrrolidinylmethyl)-2-[(3-trifluoromethylphenyl)sulfonylmethyl]-1H-indole-3-carboxylate], the TC50 in the series on 2.2.15 cells was 35.61 µg/mL (≈ 56.6 µM). In addition, in the series with HBsAg, the IC50 came out at 18.3 µg/mL (≈ 29.1 µM) and the “HBsAg SI” value is recorded as 1.94. Also, in the series with HBV DNA, the IC50 turned out to be 6.38 µg/mL (≈ 10.1 µM) and the “DNA replication SI” value was 5.58.

Regarding `CCOC(=O)c1c(CSCc2ccccc2)n(C)c2cc(Br)c(O)c(Cn3ccnc3)c12` [Example 176, Ethyl 6-bromo-5-hydroxy-4-[(1-imidazolyl)methyl]-1-methyl-2-(benzylthiomethyl)-1H-indole-3-carboxylate], the IC50 in series [1] (setting [3]) was 15.6 µg/mL (≈ 30.4 µM). Moreover, in series [1], the SI stood at 8.0. In addition, the TC50 in series [2] worked out at 125 µg/mL (≈ 243 µM).

Take `CCOC(=O)c1c(CSCc2ccccc2)n(C2CC2)c2cc(Br)c(O)c(CNC(=N)N)c12` [Example 188, Ethyl 6-bromo-1-cyclopropyl-4-(guanidinylmethyl)-5-hydroxy-2-(benzylthiomethyl)-1H-indole-3-carboxylate]: in series [1] (setting [3]), the IC50 stood at 9.85 µg/mL (≈ 18.5 µM). The compound also had an SI in series [1] of 4.0. Moreover, in series [2], the TC50 stood at 39.37 µg/mL (≈ 74.1 µM).

As to `CCOC(=O)c1c(CSCc2ccccc2)n(C)c2cc(Br)c(O)c(CNC(=N)N)c12` [Example 104, Ethyl 6-bromo-4-(guanidinylmethyl)-5-hydroxy-1-methyl-2-(benzylthiomethyl)-1H-indole-3-carboxylate], the IC50 in series [1] (setting [3]) was 13.3 µg/mL (≈ 26.4 µM). For the same compound, the SI in series [1] came out at 11.16. Besides, the TC50 in series [2] was found to be 148.65 µg/mL (≈ 294 µM).

Consider `CCOC(=O)c1c(CSCc2ccccc2)n(C2CC2)c2cc(Br)c(O)c(Cn3ccnc3)c12` [Example 91, Ethyl 6-bromo-1-cyclopropyl-5-hydroxy-4-[(1-imidazolyl)methyl]-2-(benzylthiomethyl)-1H-indole-3-carboxylate], for which the IC50 in series [1] (setting [3]) worked out at 15.6 µg/mL (≈ 28.9 µM). In series [1], the SI turned out to be 18.77. The compound further came in with a TC50 in series [2] of 293.37 µg/mL (≈ 543 µM).

For the compound `CCOC(=O)c1c(C[S+]([O-])c2ccc(C(F)(F)F)cc2)n(C)c2cc(Br)c(O)c(Cn3ccnc3)c12` (stereo not shown) [Example 177, Ethyl 6-bromo-5-hydroxy-4-[(1-imidazolyl)methyl]-1-methyl-2-[(4-trifluoromethylphenyl)sulfinylmethyl]-1H-indole-3-carboxylate], the TC50 in the series with 2.2.15 cells was 106.83 µg/mL (≈ 183 µM). Besides, in the series on HBsAg, the 50% inhibitory concentration (IC50) was determined as 31.5 µg/mL (≈ 53.8 µM) and the “HBsAg SI” value was 3.39. In addition, in the series on HBV DNA, the IC50 was 15.9 µg/mL (≈ 27.2 µM) and the “DNA replication SI” value was 6.72.

The compound `CCOC(=O)c1c(C[S+]([O-])c2ccc(F)cc2)n(C)c2cc(Br)c(O)c(CNC(=N)N)c12` (stereo not shown) [Example 153, Ethyl 6-bromo-4-(guanidinylmethyl)-5-hydroxy-1-methyl-2-[(4-fluorophenyl)sulfinylmethyl]-1H-indole-3-carboxylate] came in with a TC50 with 2.2.15 cells of 125 µg/mL (≈ 238 µM). Besides, in the series with HBsAg, the IC50 came out at 62.2 µg/mL (≈ 118 µM) and the “HBsAg SI” value amounted to 2.01. Further, in the series on HBV DNA, the IC50 was 29.3 µg/mL (≈ 55.8 µM) and the “DNA replication SI” value stood at 4.27. Besides, at HIV-1 protease, the IC50 is 133 µM, the “inhibition ratio at 0.5 ug/ml” value was determined as 7.2, the “inhibition ratio at 2.0 ug/ml” value came out at 14.7 and the “inhibition ratio at 10 ug/ml” value is on record as 11.2. Also, on HIV-1 protease, the “inhibition ratio at 50 ug/ml” value stood at 24.1 and the “inhibition ratio at 250 ug/ml” value is on record as 75.3.

For `CCOC(=O)c1c(CSc2cccc(F)c2)n(C)c2cc(Br)c(O)c(Cn3ccnc3)c12` [Example 175, Ethyl 6-bromo-5-hydroxy-4-[(1-imidazolyl)methyl]-1-methyl-2-[(3-fluorophenyl)thiomethyl]-1H-indole-3-carboxylate], the TC50 in the series on 2.2.15 cells worked out at 35.61 µg/mL (≈ 68.7 µM). In the series on HBsAg, the IC50 came out at 2.45 µg/mL (≈ 4.73 µM) and the “HBsAg SI” value was 14.53. In the series with HBV DNA, the IC50 is 4.65 µg/mL (≈ 8.97 µM) and the “DNA replication SI” value is recorded as 7.66.

Take `CCOC(=O)c1c(C[S+]([O-])Cc2cscn2)n(C2CC2)c2cc(Br)c(O)c(CN(C)C)c12` (stereo not shown) [Example 52, Ethyl 6-bromo-1-cyclopropyl-4-[(dimethylamino)methyl]-5-hydroxy-2-[(4-thiazolylmethyl)sulfinylmethyl]-1H-indole-3-carboxylate dihydrochloride]: in the series with 2.2.15 cells, the TC50 amounted to 64.15 µg/mL. For the same compound, in the series with HBsAg, the IC50 was 4.79 µg/mL and the “HBsAg SI” value is 13.39. Further, in the series on HBV DNA, the IC50 came to 3.51 µg/mL and the “DNA replication SI” value is given as 18.27.

In the case of `CCOC(=O)c1c(CS(=O)(=O)c2cccc(OC)c2)n(C)c2cc(Br)c(O)c(CN(C)C)c12` [Example 55, Ethyl 6-bromo-4-[(dimethylamino)methyl]-5-hydroxy-1-methyl-2-[(3-methoxyphenyl)sulfonylmethyl]-1H-indole-3-carboxylate], the TC50 with 2.2.15 cells came to 21.56 µg/mL (≈ 40 µM). Also, in the series with HBV DNA, the IC50 was 2.2 µg/mL (≈ 4.08 µM) and the “DNA replication SI” value is 9.7. On HIV-1 protease, half-maximal inhibition (IC50) was put at 49 µM, the “inhibition ratio at 0.5 ug/ml” value is reported as 2.1, the “inhibition ratio at 2.0 ug/ml” value is recorded as 6.7 and the “inhibition ratio at 10 ug/ml” value is recorded as 0.1. Further, at HIV-1 protease, the “inhibition ratio at 50 ug/ml” value amounted to 30.5 and the “inhibition ratio at 250 ug/ml” value was 98.0.

In the series on 2.2.15 cells, `CCOC(=O)c1c(CSc2nc3ccccc3[nH]2)n(C)c2cc(Br)c(O)c(Cn3ccnc3)c12.Cl` [Example 94, Ethyl 6-bromo-5-hydroxy-4-[(1-imidazolyl)methyl]-1-methyl-2-[(benzo[d]imidazol-2-yl)thiomethyl]-1H-indole-3-carboxylate hydrochloride] returned a TC50 of 53.42 µg/mL. For the same compound, in the series with HBsAg, the IC50 worked out at 7.37 µg/mL and the “HBsAg SI” value amounted to 7.25.

In turn, `CCOC(=O)c1c(C[S+]([O-])Cc2ccco2)n(C)c2cc(Br)c(O)c(CN3CCCC3)c12` (stereo not shown) [Example 71, Ethyl 6-bromo-5-hydroxy-1-methyl-4-(1-pyrrolidinylmethyl)-2-[(2-furylmethyl)sulfinylmethyl]-1H-indole-3-carboxylate] showed a TC50 with 2.2.15 cells of 38.32 µg/mL (≈ 73.2 µM). For the same compound, in the series on HBsAg, the IC50 turned out to be 18.4 µg/mL (≈ 35.1 µM) and the “HBsAg SI” value came out at 2.09. For the same compound, in the series on HBV DNA, the IC50 was 23.9 µg/mL (≈ 45.6 µM) and the “DNA replication SI” value worked out at 1.60.

Compound `NC(=O)c1ncn([C@@H]2O[C@H](CO)[C@@H](O)[C@H]2O)n1` [Ribovirin, reference compound] displayed an IC50 in series [1] above 33.81 µg/mL.

Consider `CCOC(=O)c1c(CS(=O)(=O)c2ccc(C(F)(F)F)cc2)n(C)c2cc(Br)c(O)c(CN3CCCC3)c12` [Example 82, Ethyl 6-bromo-5-hydroxy-1-methyl-4-(1-pyrrolidinylmethyl)-2-[(4-trifluoromethylphenyl)sulfonylmethyl]-1H-indole-3-carboxylate], for which, in the series on 2.2.15 cells, the TC50 was determined as 14.25 µg/mL (≈ 23.6 µM). In addition, in the series with HBsAg, the IC50 amounted to 7.83 µg/mL (≈ 13 µM) and the “HBsAg SI” value came out at 1.82. For the same compound, in the series with HBV DNA, the IC50 amounted to 6.1 µg/mL (≈ 10.1 µM) and the “DNA replication SI” value was 2.34.

`CCOC(=O)c1c(CSc2nc3ccccc3[nH]2)n(C)c2cc(Br)c(O)c(Cn3ccnc3C)c12.Cl` [Example 181, Ethyl 6-bromo-5-hydroxy-1-methyl-4-[(2-methyl-1-imidazolyl)methyl]-2-[(benzo[d]imidazol-2-yl)thiomethyl]-1H-indole-3-carboxylate hydrochloride]: the TC50 with 2.2.15 cells was found to be 21.38 µg/mL. Also, in the series on HBsAg, the IC50 stood at 1.55 µg/mL and the “HBsAg SI” value was determined as 13.79.

Compound `CCOC(=O)c1c(C[S+]([O-])c2ccc(C(F)(F)F)cc2)n(C2CC2)c2cc(Br)c(O)c(CN(C)C)c12` (stereo not shown) [Example 79, Ethyl 6-bromo-1-cyclopropyl-4-[(dimethylamino)methyl]-5-hydroxy-2-[(4-trifluoromethylphenyl)sulfinylmethyl]-1H-indole-3-carboxylate] returned a TC50 in the series on 2.2.15 cells of 17.12 µg/mL (≈ 29.1 µM). Besides, in the series on HBsAg, the IC50 came to 6.3 µg/mL (≈ 10.7 µM) and the “HBsAg SI” value stood at 2.72. For the same compound, in the series with HBV DNA, the IC50 amounted to 4.47 µg/mL (≈ 7.61 µM) and the “DNA replication SI” value amounted to 3.83.

The record behind these values is patent publication US7960427B2, “5-hydroxyindole-3-carboxylate derivatives and uses thereof” (priority 2004, dated 2011).
